Experimental data: US20260317299A1, “PIKFYVE PROTEIN KINASE DEGRADATION AGENT AND USE THEREOF” (Shanghai Institute of Organic Chemistry, Chinese Academy of …, priority 2023, published 2026)

Biological target: T1, PIKfyve (Homo sapiens, UniProt Q9Y2I7)
T1 construct: endogenous in cells; host or cells: VCaP
Experiment: Degradation of PIKfyve proteins in VCaP tumor cells (24 h, Western blot)
Assay type: cell-based
Conditions: 37° C., compared with DMSO control, WB, read-out: DC50 (concentration that achieves 50% degradation activity)
In short: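 VCaP cells (5×10^6 cells/ml) treated with a range of compound concentrations at 37° C for 24 h, then lysed in SDS buffer. PIKfyve level measured by Western blot with GAPDH as loading control and ECL detection. DC50 is the concentration giving 50% degradation relative to DMSO control.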

T1 sequence (Q9Y2I7 whole entry): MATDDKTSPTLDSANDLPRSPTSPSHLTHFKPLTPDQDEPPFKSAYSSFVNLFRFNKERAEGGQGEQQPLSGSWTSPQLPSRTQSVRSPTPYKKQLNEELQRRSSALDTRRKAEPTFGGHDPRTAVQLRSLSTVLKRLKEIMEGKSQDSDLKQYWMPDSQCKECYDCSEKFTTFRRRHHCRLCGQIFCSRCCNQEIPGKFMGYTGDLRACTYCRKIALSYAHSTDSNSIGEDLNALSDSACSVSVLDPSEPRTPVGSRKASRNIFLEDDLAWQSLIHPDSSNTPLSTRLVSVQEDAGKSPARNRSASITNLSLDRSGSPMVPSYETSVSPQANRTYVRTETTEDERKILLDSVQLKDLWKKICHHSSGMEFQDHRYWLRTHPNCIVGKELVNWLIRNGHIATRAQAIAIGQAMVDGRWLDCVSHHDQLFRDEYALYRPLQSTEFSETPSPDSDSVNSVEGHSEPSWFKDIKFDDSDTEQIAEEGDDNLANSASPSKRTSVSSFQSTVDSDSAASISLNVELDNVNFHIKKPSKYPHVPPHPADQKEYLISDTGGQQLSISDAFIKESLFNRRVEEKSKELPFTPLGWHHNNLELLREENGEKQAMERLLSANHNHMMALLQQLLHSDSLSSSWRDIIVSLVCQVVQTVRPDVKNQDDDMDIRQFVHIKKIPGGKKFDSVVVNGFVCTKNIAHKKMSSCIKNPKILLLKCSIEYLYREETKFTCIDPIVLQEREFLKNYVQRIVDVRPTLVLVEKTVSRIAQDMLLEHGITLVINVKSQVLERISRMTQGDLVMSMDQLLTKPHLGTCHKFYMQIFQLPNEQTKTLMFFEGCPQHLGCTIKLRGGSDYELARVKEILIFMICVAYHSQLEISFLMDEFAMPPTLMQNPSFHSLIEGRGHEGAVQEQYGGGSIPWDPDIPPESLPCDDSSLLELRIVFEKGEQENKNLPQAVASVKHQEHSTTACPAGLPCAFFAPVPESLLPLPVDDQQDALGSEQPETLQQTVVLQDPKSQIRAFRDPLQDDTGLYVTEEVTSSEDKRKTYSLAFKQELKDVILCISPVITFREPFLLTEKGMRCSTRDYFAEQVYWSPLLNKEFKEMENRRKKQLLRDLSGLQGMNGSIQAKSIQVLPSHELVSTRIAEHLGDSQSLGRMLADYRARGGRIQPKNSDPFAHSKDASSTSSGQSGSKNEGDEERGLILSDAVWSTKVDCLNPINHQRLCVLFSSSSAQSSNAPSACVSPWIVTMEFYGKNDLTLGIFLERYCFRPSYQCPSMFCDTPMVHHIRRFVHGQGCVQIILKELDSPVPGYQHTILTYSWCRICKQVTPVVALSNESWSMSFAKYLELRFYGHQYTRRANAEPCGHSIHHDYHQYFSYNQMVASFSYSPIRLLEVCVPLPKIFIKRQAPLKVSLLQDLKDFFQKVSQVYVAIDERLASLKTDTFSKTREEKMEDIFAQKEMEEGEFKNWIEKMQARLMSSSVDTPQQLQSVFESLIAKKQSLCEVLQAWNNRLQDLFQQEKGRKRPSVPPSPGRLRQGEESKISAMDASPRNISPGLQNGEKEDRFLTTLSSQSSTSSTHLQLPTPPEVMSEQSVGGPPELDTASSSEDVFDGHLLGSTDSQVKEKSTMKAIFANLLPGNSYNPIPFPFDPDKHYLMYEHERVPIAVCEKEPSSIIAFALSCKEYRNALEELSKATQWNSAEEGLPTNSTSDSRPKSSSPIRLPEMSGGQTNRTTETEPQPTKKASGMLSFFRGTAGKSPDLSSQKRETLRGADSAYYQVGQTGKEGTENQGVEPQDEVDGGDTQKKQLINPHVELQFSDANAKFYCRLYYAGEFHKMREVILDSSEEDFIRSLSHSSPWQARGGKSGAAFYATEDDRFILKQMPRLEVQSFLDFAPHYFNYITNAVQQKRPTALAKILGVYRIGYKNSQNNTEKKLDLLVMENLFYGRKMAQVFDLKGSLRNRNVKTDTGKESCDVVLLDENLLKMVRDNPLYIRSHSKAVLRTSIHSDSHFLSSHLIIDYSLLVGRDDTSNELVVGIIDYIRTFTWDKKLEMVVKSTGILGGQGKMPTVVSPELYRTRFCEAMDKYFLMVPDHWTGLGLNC

SMILES	DC50 [nM]
Cc1cccc(/C=N/Nc2cc(N3CCOCC3)nc(OCCc3ccc(NC(=O)CCCCCCC(=O)Nc4ccc5c(c4)CN(C4CCC(=O)NC4=O)C5=O)cc3)n2)c1 (centres unmarked) [Example 26, (E)-N^1-(2-(2,6-dioxopiperidin-3-yl)-1-oxoisoindolin-5-yl)-N^8-(4-(2-((4-(2-(3-methylbenzylidene)hydrazino)-6-morpholinopyrimidin-2-yl)oxy)ethyl)phenyl)octanediamide]	100 to 10000
Cc1cccc(-c2ccn(-c3cc(N4CCOCC4)nc(OC4CCN(c5ccc(NC(=O)CC[C@H](NC(=O)[C@@H]6C[C@@H](O)CN6C(=O)[C@@H](NC(=O)C6(F)CC6)C(C)(C)C)c6ccc(-c7scnc7C)cc6)cc5)CC4)n3)n2)c1 [Example 68, (2S,4R)-1-((S)-2-(1-fluorocyclopropane-1-carboxamido)-3,3-dimethylbutanoyl)-4-hydroxy-N—((S)-1-(4-(4-methylthiazol-5-yl)phenyl)-4-((4-(4-((4-morpholino-6-(3-(m-tolyl)-1H-pyrazol-1-yl)pyrimidin-2-yl)oxy)piperidin-1-yl)phenyl)amino)-4-oxobutyl)pyrrolidine-2-carboxamide]	1 to 100
Cc1cccc(/C=N/Nc2cc(N3CCOCC3)nc(OCCc3ccc(NC(=O)CNC(=O)CSC(C)(C)[C@H](NC(=O)C4(F)CC4)C(=O)N4C[C@H](O)C[C@H]4C(=O)NCc4ccc(-c5scnc5C)cc4)cc3)n2)c1 [Example 58, (2S,4R)-1-((R)-2-(1-fluorocyclopropane-1-carboxamido)-3-methyl-3-((2-((2-((4-(2-((4-(2-((E)-3-methylbenzylidene)hydrazino)-6-morpholinopyrimidin-2-yl)oxy)ethyl)phenyl)amino)-2-oxoethyl)amino)-2-oxoethyl)thio)butanoyl)-4-hydroxy-N-(4-(4-methylthiazol-5-yl)benzyl)pyrrolidine-2-carboxamide]	100 to 10000
Cc1cccc(-c2ccn(-c3cc(N4CCOCC4)nc(OC4CCN(c5ccc(NC(=O)CCCC[C@H](NC(=O)[C@@H]6C[C@@H](O)CN6C(=O)[C@@H](NC(=O)C6(F)CC6)C(C)(C)C)c6ccc(-c7scnc7C)cc6)cc5)CC4)n3)n2)c1 [Example 69, (2S,4R)-1-((S)-2-(1-fluorocyclopropane-1-carboxamido)-3,3-dimethylbutanoyl)-4-hydroxy-N—((S)-1-(4-(4-methylthiazol-5-yl)phenyl)-6-((4-(4-((4-morpholino-6-(3-(m-tolyl)-1H-pyrazol-1-yl)pyrimidin-2-yl)oxy)piperidin-1-yl)phenyl)amino)-6-oxohexyl)pyrrolidine-2-carboxamide]	1 to 100
Cc1cccc(/C=N/Nc2cc(N3CCOCC3)nc(OCCc3ccc(NC(=O)CCCCCCCCC(=O)N[C@H](C(=O)N4C[C@H](O)C[C@H]4C(=O)N[C@@H](C)c4ccc(-c5scnc5C)cc4)C(C)(C)C)cc3)n2)c1 [Example 48]	1 to 100
Cc1cccc(/C=N/Nc2cc(N3CCOCC3)nc(OCCc3ccc(NC(=O)CC[C@H](NC(=O)[C@@H]4C[C@@H](O)CN4C(=O)[C@@H](NC(=O)C4(F)CC4)C(C)(C)C)c4ccc(-c5scnc5C)cc4)cc3)n2)c1 [Example 49, (2S,4R)-1-((S)-2-(1-fluorocyclopropane-1-carboxamido)-3,3-dimethylbutanoyl)-4-hydroxy-N—((S)-4-((4-(2-((4-(2-((E)-3-methylbenzylidene)hydrazino)-6-morpholinopyrimidin-2-yl)oxy)ethyl)phenyl)amino)-1-(4-(4-methylthiazol-5-yl)phenyl)4-oxobutyl)pyrrolidine-2-carboxamide]	1 to 100
Cc1cccc(-c2ccn(-c3cc(N4CCOCC4)nc(OCCc4ccc(NC(=O)NC5CCN(C(=O)C[C@H](NC(=O)[C@@H]6C[C@@H](O)CN6C(=O)[C@@H](NC(=O)C6(F)CC6)C(C)(C)C)c6ccc(-c7scnc7C)cc6)CC5)cc4)n3)n2)c1 [Example 78, (2S,4R)-1-((S)-2-(1-fluorocyclopropane-1-carboxamido)-3,3-dimethylbutanoyl)-4-hydroxy-N—((S)-1-(4-(4-methylthiazol-5-yl)phenyl)-3-(4-(3-(4-(2-((4-morpholino-6-(3-(m-tolyl)-1H-pyrazol-1-yl)pyrimidin-2-yl)oxy)ethyl)phenyl)ureido)piperidin-1-yl)-3-oxopropyl) pyrrolidine-2-carboxamide]	1 to 100
Cc1cccc(/C=N/Nc2cc(N3CCOCC3)nc(OCCc3ccc(NC(=O)CCC(=O)Nc4cccc5c4C(=O)N(C4CCC(=O)NC4=O)C5)cc3)n2)c1 (centres unmarked) [Example 32, (E)-N^1-(2-(2,6-dioxopiperidin-3-yl)-3-oxoisoindolin-4-yl)-N^4-(4-(2-((4-(2-(3-methylbenzylidene)hydrazino)-6-morpholinopyrimidin-2-yl)oxy)ethyl)phenyl)succinimide]	1 to 100
Cc1cccc(/C=N/Nc2cc(N3CCOCC3)nc(OCCc3ccc(NC(=O)COc4cccc5c4C(=O)N(C4CCC(=O)NC4=O)C5=O)cc3)n2)c1 (centres unmarked) [Example 1, (E)-2-((2-(2,6-dioxopiperidin-3-yl)-1,3-dioxoisoindolin-4-yl)oxy)-N-(4-(2-((4-(2-(3-methylbenzylidene)hydrazino)-6-morpholinopyrimidin-2-yl)oxy)ethyl)phenyl)acetamide]	100 to 10000
Cc1cccc(-c2ccn(-c3cc(N4CCOCC4)nc(OCCc4ccc(N5CCN(CC6CCN(c7cc8c(cc7F)C(=O)N(C7CCC(=O)NC7=O)C8=O)CC6)CC5)cc4)n3)n2)c1 (centres unmarked) [Example 91, 2-(2,6-Dioxopiperidin-3-yl)-5-fluoro-6-(4-((4-(4-(2-((4-morpholino-6-(3-(m-tolyl)-1H-pyrazol-1-yl)pyrimidin-2-yl)oxy)ethyl)phenyl)piperazin-1-yl)methyl)piperidin-1-yl)isoindoline-1,3-dione]	100 to 10000
Cc1cccc(/C=N/Nc2cc(N3CCOCC3)nc(OCCNC(=O)CCCCCCCCC(=O)N[C@H](C(=O)N3C[C@H](O)C[C@H]3C(=O)NCc3ccc(-c4scnc4C)cc3)C(C)(C)C)n2)c1 [Example 64, N^1—((S)-1-((2S,4R)-4-hydroxy-2-((4-(4-methylthiazol-5-yl)benzyl)carbamoyl)pyrrolidine-1-yl)-3,3-dimethyl-1-oxobutan-2-yl)-N^10-(2-((4-(2-((E)-3-methylbenzylidene) hydrazino)-6-morpholinopyrimidin-2-yl)oxy)ethyl)decanediamide]	100 to 10000
Cc1cccc(/C=N/Nc2cc(N3CCOCC3)nc(OCCc3ccc(NC(=O)CCCCCCCCC(=O)Nc4ccc5c(c4)C(=O)N(C4CCC(=O)NC4=O)C5)cc3)n2)c1 (centres unmarked) [Example 31, (E)-N^1-(2-(2,6-dioxopiperidin-3-yl)-3-oxoisoindol-5-yl)-N^10-(4-(2-((4-(2-(3-methylbenzylidene)hydrazino)-6-morpholinopyrimidin-2-yl)oxy)ethyl)phenyl)decanediamide]	100 to 10000
Cc1cccc(-c2ccn(-c3cc(N4CCOCC4)nc(OC4CCN(c5ccc(NC(=O)NC6CN(c7cc8c(cc7F)C(=O)N(C7CCC(=O)NC7=O)C8=O)C6)cc5)CC4)n3)n2)c1 (centres unmarked) [Example 93, 1-(1-(2-(2,6-Dioxopiperidin-3-yl)-6-fluoro-1,3-dioxoisoindolin-5-yl)azetidin-3-yl)-3-(4-(4-((4-morpholino-6-(3-(m-tolyl)-1H-pyrazol-1-yl)pyrimidin-2-yl)oxy)piperidin-1-yl)phenyl)urea]	100 to 10000
Cc1cccc(-c2ccn(-c3cc(N4CCOCC4)nc(OC4CCN(c5ccc(N6CCN(C(=O)CCCC[C@H](NC(=O)[C@@H]7C[C@@H](O)CN7C(=O)[C@@H](NC(=O)C7(F)CC7)C(C)(C)C)c7ccc(-c8scnc8C)cc7)CC6)cc5)CC4)n3)n2)c1 [Example 86, (2S,4R)-1-((S)-2-(1-fluorocyclopropane-1-carboxamido)-3,3-dimethylbutanoyl)-4-hydroxy-N—((S)-1-(4-(4-methylthiazol-5-yl)phenyl)-6-(4-(4-(4-((4-morpholino-6-(3-(m-tolyl)-1H-pyrazol-1-yl)pyrimidin-2-yl)oxy)piperidin-1-yl)phenyl)piperazin-1-yl)-6-oxohexyl) pyrrolidine-2-carboxamide]	1 to 100
Cc1cccc(/C=N/Nc2cc(N3CCOCC3)nc(OCCc3ccc(NC(=O)CCCCCCCC(=O)N[C@H](C(=O)N4C[C@H](O)C[C@H]4C(=O)NCc4ccc(-c5scnc5C)cc4)C(C)(C)C)cc3)n2)c1 [Example 43, N^1—((S)-1-((2S,4R)-4-hydroxy-2-((4-(4-methylthiazol-5-yl)benzyl)carbamoyl)pyrrolidine-1-yl)-3,3-dimethyl-1-oxobutan-2-yl)-N^9-(4-(2-((4-(2-((E)-3-methylbenzylidene) hydrazino)-6-morpholinopyrimidin-2-yl)oxy)ethyl)phenyl)nonediamide]	1 to 100
Cc1cccc(-c2ccn(-c3cc(N4CCOCC4)nc(OCCc4ccc(-c5ccc(NC(=O)CC[C@H](NC(=O)[C@@H]6C[C@@H](O)CN6C(=O)[C@@H](NC(=O)C6(F)CC6)C(C)(C)C)c6ccc(-c7scnc7C)cc6)cc5)cc4)n3)n2)c1 [Example 88, (2S,4R)-1-((S)-2-(1-fluorocyclopropane-1-carboxamido)-3,3-dimethylbutanoyl)-4-hydroxy-N—((S)-1-(4-(4-methylthiazol-5-yl)phenyl)-4-((4′-(2-((4-morpholino-6-(3-(m-tolyl)-1H-pyrazol-1-yl)pyrimidin-2-yl)oxy)ethyl)-[1,1′-biphenyl]-4-yl)amino)-4-oxobutyl)pyrrolidine-2-carboxamide]	1 to 100
Cc1cccc(-c2ccn(-c3cc(N4CCOCC4)nc(OCCc4ccc(C#CC5CCN(C(=O)CCCC[C@H](NC(=O)[C@@H]6C[C@@H](O)CN6C(=O)[C@@H](NC(=O)C6(F)CC6)C(C)(C)C)c6ccc(-c7scnc7C)cc6)CC5)cc4)n3)n2)c1 [Example 72, (2S,4R)-1-((S)-2-(1-fluorocyclopropane-1-carboxamido)-3,3-dimethylbutanoyl)-4-hydroxy-N—((S)-1-(4-(4-methylthiazol-5-yl)phenyl)-6-(4-((4-(2-((4-morpholino-6-(3-(m-tolyl)-1H-pyrazol-1-yl)pyrimidin-2-yl)oxy)ethyl)phenyl)ethynyl)piperidin-1-yl)-6-oxohexyl) pyrrolidine-2-carboxamide]	1 to 100
